Holding throughout (assay): NCI tumour cell line growth inhibition, 48 h
Assay [1] relates to HOP-92 NSCLC.
Assay [2] deals with KM12 colon.
For assay [3], the system named is LOX IMVI melanoma.
In assay [4] the test system is NCI-H226 lung.
In assay [5] the test system is OVCAR-5 ovarian.
Assay [6] relates to SF-539 CNS.
Assay [7] concerns SK-MEL-2 melanoma.
For assay [8], the system named is SNB-75 CNS.
Assay [9] has as its system SW-620 colon.
In assay [10] the test system is UACC-62 melanoma.

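Method: 48-hour compound exposure of cells in 96-well plates, five concentrations, linear interpolation of endpoints. The concentration for 50% growth inhibition is given as GI50. TGI: concentration producing complete growth inhibition.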

With `CCc1cccc(C)c1NC(=O)CC1Sc2ccccc2NC1=O` (stereo not given), the TGI in [1] was 99.7 µM; in assay [2], over 100 µM; in [3] it was over 100 µM; in [4] it was 64.6 µM; in [5], over 100 µM; in assay [6], over 100 µM. Further, the TGI in [7] was over 100 µM; in assay [8], 75 µM; in assay [9] it was over 100 µM; in assay [10], over 100 µM.
As to `CC1(C)C(=O)/C(=C\c2ccco2)C[C@]2(C)[C@H]3CC=C4[C@@H]5C[C@](C)(C(=O)O)CC[C@]5(C)CC[C@@]4(C)[C@]3(C)CC[C@@H]12`, the GI50 in assay [1] was 3.83 µM; in assay [2], 5.88 µM; in assay [3] it was 9.56 µM; in [4] it was 9.92 µM; in assay [5], 15.6 µM; in assay [6] it was 13.2 µM. Further, the GI50 in assay [7] is 15.1 µM; in assay [8] it was 24.6 µM; in assay [9], 10.2 µM; in [10], 6.49 µM. In addition, the TGI came to 17 µM in assay [1]; 19.5 µM in [2]; 22.2 µM in [3]; 37 µM in assay [4]; 32.2 µM in assay [5]; 27.3 µM in assay [6]. For the same compound, the TGI in assay [7] was 36.8 µM; in assay [8], over 100 µM; in assay [9], 25.9 µM; in assay [10] it was 20.3 µM.
For the compound `O=Nc1c2cccnc2n2nnc3ccc(Cl)cc3c12`, the GI50 is 0.0999 µM in assay [1]; 1.54 µM in [2]; 1.35 µM in assay [3]; 4.96 µM in assay [4]; 3.6 µM in assay [5]; 3.68 µM in [6]. Further, the GI50 in [7] is 3.6 µM; in assay [8], 3.19 µM; in assay [9], 0.331 µM; in assay [10] it was 3.99 µM. In addition, the TGI in assay [1] was 1.75 µM; in [2] it was 4.75 µM; in assay [3] it was 6.19 µM; in assay [4] it was 21 µM; in assay [5] it was 14.5 µM; in [6] it was 10.5 µM. In addition, the TGI amounted to 13.3 µM in assay [7], 11.4 µM in assay [8], 1.33 µM in assay [9] and 11.2 µM in [10].
As to `Nc1ncnc2c1ncn2C1OC(C(=O)O)C(O)C1O` (stereo not given), the TGI in [1], in [2], in assay [3], in assay [4], in [5] and in assay [6] was over 100 µM in each case. The TGI in assay [7], in [8], in [9] and in assay [10] was over 100 µM throughout.
For `Cc1c(C(=O)CC(=O)C(=O)NC2C3CC4CC(C3)CC2C4)[n+](=O)c2ccccc2n1[O-]` (stereo not given), the TGI in assay [1], in assay [2], in assay [3], in assay [4], in assay [5] and in [6] was over 100 µM each time. Moreover, the TGI in assay [7], in assay [8], in [9] and in assay [10] was over 100 µM each time.
In the case of `O=C(/C=C/c1ccc([N+](=O)[O-])o1)NNC(=O)c1cc2ccccc2cc1O`, the GI50 in [1] is 2.75 µM; in assay [2], 2.18 µM; in assay [3] it was 0.395 µM; in [4], 3.51 µM; in assay [5], 13 µM; in [6], 2.06 µM. For the same compound, the GI50 in assay [7] was 1.44 µM; in assay [8] it was 1.72 µM; in [9], 2.03 µM; in assay [10], 0.694 µM. The TGI in [1] is over 100 µM; in assay [2] it was over 23 µM; in [3], 1.98 µM; in assay [4] it was 34.1 µM; in assay [5], over 100 µM; in assay [6], 7.52 µM. For the same compound, the TGI in assay [7] was 3.97 µM; in [8] it was over 100 µM; in [9] it was over 89 µM; in [10], 2.26 µM.
Turning to `COc1cc(C(C#N)NNC(=O)c2ccccc2O)ccc1O` (stereo not given), the TGI in assay [1] is 97.3 µM; in [2] it was over 100 µM; in [3], over 100 µM; in assay [4] it was 38 µM; in assay [5], over 100 µM; in [6], 8.73 µM. Further, the TGI in [7] is over 100 µM; in assay [8], 8.46 µM; in assay [9] it was over 100 µM; in assay [10] it was 5.22 µM.
With `O=C1Cc2c(-c3ccccc3)cc(-c3cccc(Cl)c3)nc2-c2ccccc2N1`, the TGI in assay [1] is 5.42 µM; in [2], over 75.3 µM; in [3], 7.28 µM; in [4], 17.7 µM; in assay [5], 30.3 µM; in assay [6], over 29.9 µM. In addition, the TGI was 24.4 µM in assay [7], 6.04 µM in [8], over 100 µM in assay [9] and 12.2 µM in [10].
Turning to `[Cl][Sn]([c]1ccccc1)[c]1ccccc1`, the GI50 in assay [1] is 3.61 µM; in assay [2], 12.4 µM; in assay [3], 3.81 µM; in assay [4], 15.8 µM; in assay [5], 13.6 µM; in assay [6] it was 9.43 µM. For the same compound, the GI50 was 2.65 µM in assay [7], 6.18 µM in [8], 1.95 µM in assay [9] and 3.22 µM in assay [10]. Moreover, the TGI is 8.69 µM in assay [1]; 18 µM in [2]; 13.5 µM in assay [3]; 29.6 µM in [4]; 27.3 µM in assay [5]; 22.6 µM in [6]. In addition, the TGI was 11.9 µM in assay [7], 19.4 µM in assay [8], 4.49 µM in assay [9] and 9.57 µM in assay [10].
With `O=c1oc2c3ccc4ccccc4c3n(Cc3nc4ccccc4[nH]3)c2c2ccccc12`, the TGI was over 100 µM in assay [1]; over 100 µM in assay [2]; over 100 µM in assay [3]; over 100 µM in assay [4]; over 100 µM in assay [5]; over 26.2 µM in [6]. In addition, the TGI is over 100 µM in assay [7], over 87.7 µM in assay [8], over 100 µM in assay [9] and over 100 µM in assay [10].

Values taken from PubChem BioAssay (NCI).
